Measured values reported in PubChem BioAssay AID1963850 (Molecular Pharmacology Branch, DTP, NCI, 2024).

Test system: 192522-019-R-J2-PDC complex tumor spheroid viability
Assay: Anticancer human tumor 192522-019-R-J2-PDC patient-derived colon adenocarcinoma cell line growth inhibition [POLQ]
Conditions: for IC50: curve of first compound; for viability, T/C: stronger effect = lower value
Protocol: Multicellular complex tumor spheroid response to Polymerase (POL) inhibitors (novobiocin, ART-558, RP6685) in combination with a variety of drugs and investigational agents in selected tumor cell lines
The POL inhibitors (novobiocin, ART-558, and RP6685) were evaluated both individually and in combination with standard of care and investigational anticancer small molecules within a complex spheroid model of solid tumors. . Complex spheroids include a stromal component modeled by human endothelial cells (HUVEC) and fibroblasts modeled by human mesenchymal stem cells (MSCs). The concentration ranges selected for each drug and investigational agent were based upon clinically achievable concentrations if the clinical Cmax of the agent was known.
Compounds. The drugs and investigational agents: novobiocin (NSC847541), ART-558 (NSC835418), RP-6685 (NSC848927), peposertib (NSC802822), ceralasertib (NSC780249), elimusertib (NSC800525), camonsertib (NSC841442), AZD-1390 (NSC803789), olaparib (NSC753686), talazoparib (NSC767125), rucaparib (NSC756644), sotorasib (NSC818433), MRTX-1133 (NSC836407), SN-38 (NSC673596), topotecan (NSC609699), epotoside (NSC141540), doxorubicin (NSC123127), gemcitabine (NSC613327), 5-fluorouracil (NSC19893), paclitaxel (NSC125973), vemurafenib (NSC761431), MSA-2 (NSC828583), SN-011 (NSC837082), adavosertib (NSC754352), prexasertib (NSC758257), carboplatin (NSC241240) and oxaliplatin (NSC266046), were obtained from the National Cancer Institute (NCI) Developmental Therapeutics Program Chemical Repository (21). The FDA-approved anticancer drug set is available from the Developmental Therapeutics Program at https://dtp.cancer.gov/organization/dscb/obtaining/. […] The stock solutions were prepared in dimethyl sulfoxide (DMSO, Sigma-Aldrich, St. Louis, MO, cat. D2650), except for the platinum compounds which were prepared in saline (Quality Biological, Gaithersburg, MD, cat. 114-055-101), at 800-fold the tested concentration and stored at -70 degrees C prior to their use. All drugs and investigational agents were tested over a range starting from a high concentration at or near the clinical Cmax and decreasing in half-log increments. If the clinical Cmax for an agent had not been determined, the highest concentration tested was 10 microM, except for SN-38, which was tested at a high concentration of 1 microM.
Cell Culture. All cells were maintained in an incubator at 37 degrees C and 5% CO2 with 95% humidity. The PDC lines were cultured according to standard operating procedures established by the NCI PDMR (https://pdmr.cancer.gov). Table 3 of the manuscript, lists the cell lines along with the number of the three cell types plated to form the mct-spheroids and media for tumor cell growth. After thawing, all PDC lines, except 997537-175-T-J1-PDC and 415267-285-R-J2-PDC, were cultured in Matrigel-coated flasks prepared with a working solution of 1X Ham's F-12 nutrient mix, without supplementation (Thermo Fisher Scientific, cat. 11765054), 100 U/mL penicillin-streptomycin (Thermo Fisher Scientific, cat. 15140122), and 2.5% Matrigel (Corning Inc., Corning, NY, cat. 354248) for the first three passages. The two PDC lines 997537-175-T-J1-PDC and 415267-285-R-J2-PDC were cultured on uncoated flasks. The 857933-349-R-J2-PDC line was cultured in 6C/Colon 1B media containing advanced DMEM/F-12 (Thermo Fisher Scientific, cat. 12634028), 10 mM HEPES (Thermo Fisher Scientific, cat. 15630080), 1X GlutaMAX supplement (Thermo Fisher Scientific, cat. 35050061), 0.1 mg/mL primocin (InvivoGen, San Diego, CA, cat. ant-pm-2), 10% defined fetal bovine serum, heat inactivated (HyClone Laboratories Inc., Logan, UT, cat. SH30070.03HI), 50% L-WRN conditioned media (ATCC, cat. CRL-3276), 1.25 mM N-Acetyl-L-cysteine (Sigma-Aldrich, cat. A9165), 10 mM nicotinamide (Sigma-Aldrich, cat. N0636), 1X B-27 supplement (Thermo Fisher Scientific, cat. 17504044), 1X N-2 supplement (Thermo Fisher Scientific, cat. […]
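Also: spheroids exposed to drugs for seven days before reading.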
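For viability, T/C in this document: 100% = DMSO vehicle control viability in luminescence.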

With CCc1cc2c(N3CCc4c(cc(Cn5ccnc5)cc4-c4cn(C)nc4C(F)(F)F)C3=O)ccnc2c(OC)n1 + COC1C(OC(N)=O)C(O)C(Oc2ccc3c(O)c(NC(=O)c4ccc(O)c(CC=C(C)C)c4)c(=O)oc3c2C)OC1(C)C as the compound, how does the IC50 (second compound 0.0316 µM) read?
Its IC50 is greater than 10 µM.

And the IC50 (second compound 0.1 µM)?
Its IC50 is greater than 10 µM.

And the IC50 (second compound 0.316 µM)?
The IC50 was greater than 10 µM.

What about the IC50 (second compound 1 µM) of the same compound?
The IC50 was greater than 10 µM.

What about the IC50 (second compound 3.16 µM) of the same compound?
The IC50 was greater than 10 µM.

What about the IC50 (second compound 10 µM) of the same compound?
Its IC50 is greater than 10 µM.

What about the viability, T/C (second compound 0.0316 µM, first compound 0.0316 µM) of the same compound?
The viability, T/C was 98.8%.

And the viability, T/C (second compound 0.0316 µM, first compound 0.1 µM)?
Its viability, T/C is 89.9%.

What about the viability, T/C (second compound 0.0316 µM, first compound 0.316 µM) of the same compound?
Its viability, T/C is 86.5%.

What about the viability, T/C (second compound 0.0316 µM, first compound 1 µM) of the same compound?
Its viability, T/C is 89.3%.

And the viability, T/C (second compound 0.0316 µM, first compound 3.16 µM)?
Its viability, T/C is 88.8%.

What about the viability, T/C (second compound 0.0316 µM, first compound 10 µM) of the same compound?
Its viability, T/C is 63%.

And the viability, T/C (second compound 0.1 µM, first compound 0.0316 µM)?
Its viability, T/C is 101%.

And the viability, T/C (second compound 0.1 µM, first compound 0.1 µM)?
The viability, T/C was 88.9%.

What about the viability, T/C (second compound 0.1 µM, first compound 0.316 µM) of the same compound?
Its viability, T/C is 93.7%.

What about the viability, T/C (second compound 0.1 µM, first compound 1 µM) of the same compound?
Its viability, T/C is 84.7%.

And the viability, T/C (second compound 0.1 µM, first compound 3.16 µM)?
The viability, T/C was 78.5%.

And the viability, T/C (second compound 0.1 µM, first compound 10 µM)?
Its viability, T/C is 67.7%.

What about the viability, T/C (second compound 0.316 µM, first compound 0.0316 µM) of the same compound?
The viability, T/C was 101%.

What about the viability, T/C (second compound 0.316 µM, first compound 0.1 µM) of the same compound?
The viability, T/C was 93.7%.

And the viability, T/C (second compound 0.316 µM, first compound 0.316 µM)?
Its viability, T/C is 89.9%.

And the viability, T/C (second compound 0.316 µM, first compound 1 µM)?
Its viability, T/C is 90.9%.

What about the viability, T/C (second compound 0.316 µM, first compound 3.16 µM) of the same compound?
Its viability, T/C is 68.3%.

What about the viability, T/C (second compound 0.316 µM, first compound 10 µM) of the same compound?
Its viability, T/C is 71.2%.

And the viability, T/C (second compound 1 µM, first compound 0.0316 µM)?
Its viability, T/C is 101%.

What about the viability, T/C (second compound 1 µM, first compound 0.1 µM) of the same compound?
Its viability, T/C is 94%.

What about the viability, T/C (second compound 1 µM, first compound 0.316 µM) of the same compound?
Its viability, T/C is 85.4%.

And the viability, T/C (second compound 1 µM, first compound 1 µM)?
Its viability, T/C is 96.6%.

And the viability, T/C (second compound 1 µM, first compound 3.16 µM)?
Its viability, T/C is 76.7%.

What about the viability, T/C (second compound 1 µM, first compound 10 µM) of the same compound?
Its viability, T/C is 67.8%.

What about the viability, T/C (second compound 3.16 µM, first compound 0.0316 µM) of the same compound?
The viability, T/C was 106%.

What about the viability, T/C (second compound 3.16 µM, first compound 0.1 µM) of the same compound?
The viability, T/C was 102%.

What about the viability, T/C (second compound 3.16 µM, first compound 0.316 µM) of the same compound?
Its viability, T/C is 92%.

And the viability, T/C (second compound 3.16 µM, first compound 1 µM)?
Its viability, T/C is 91.9%.

What about the viability, T/C (second compound 3.16 µM, first compound 3.16 µM) of the same compound?
Its viability, T/C is 90.5%.

What about the viability, T/C (second compound 3.16 µM, first compound 10 µM) of the same compound?
Its viability, T/C is 68.3%.

What about the viability, T/C (second compound 10 µM, first compound 0.0316 µM) of the same compound?
Its viability, T/C is 97.5%.

What about the viability, T/C (second compound 10 µM, first compound 0.1 µM) of the same compound?
Its viability, T/C is 88.7%.

And the viability, T/C (second compound 10 µM, first compound 0.316 µM)?
The viability, T/C was 95.6%.

And the viability, T/C (second compound 10 µM, first compound 1 µM)?
Its viability, T/C is 92.1%.

What about the viability, T/C (second compound 10 µM, first compound 3.16 µM) of the same compound?
The viability, T/C was 87.3%.

What about the viability, T/C (second compound 10 µM, first compound 10 µM) of the same compound?
The viability, T/C was 74.7%.
